Experimental data from US20250215039A1, “NUCLEOSIDES FOR TREATING CANCER” (PRIMEFOUR THERAPEUTICS, INC., priority 2022, published 2025).
Read-outs that look alike come from different tables or passages of the source.

Tested on: cancer cell lines
Assay: Cancer cell proliferation activity (CellTiterGlo, 72 h)
Format: cell-based
Conditions: 72 h, 72 h, read-out: IC50 cell proliferation
Summary of the method: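 Cells seeded overnight at 37 °C, then dosed with compound at 0.1% final DMSO and incubated 72 h at 37 °C (5% or 10% CO2 by medium).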

IC50 (5637 (bladder)): 160 nM
IC50 (CLS439 (bladder)): 770 nM
IC50 (HS729 (muscle)): 120 nM
IC50 (J82 (bladder)): 80 nM
IC50 (JAR (placenta)): 30 nM
IC50 (MT3 (breast)): 40 nM
IC50 (PANCI (pancreas)): 14900 nM
IC50 (PC3 (prostate)): 70 nM
IC50 (RD (muscle)): 70 nM
IC50 (T24 (bladder)): 90 nM
IC50 (Homo sapiens, 22Rv1, 72 h, 22RV1 (prostate)): 250 nM
IC50 (Homo sapiens, 786-0, 72 h, 786O (kidney)): 70 nM
IC50 (Homo sapiens, A204, 72 h, A204 (muscle)): 30 nM
IC50 (Homo sapiens, A549, 72 h, A549 (lung)): 370 nM
IC50 (Homo sapiens, A673, 72 h, A673 (bone)): 360 nM
IC50 (Homo sapiens, A2780, 72 h, A2780 (ovary)): 150 nM
IC50 (Homo sapiens, A-375, 72 h, A375 (skin)): 40 nM
IC50 (Homo sapiens, A-431, 72 h, A431 (skin)): 50 nM
IC50 (Homo sapiens, ACHN, ACHN (kidney)): 460 nM
IC50 (Homo sapiens, ASPC1, 72 h, ASPC1 (pancreas)): 30 nM
IC50 (Homo sapiens, BT-20, 72 h, BT20 (breast)): 70 nM
IC50 (Homo sapiens, BXPC-3, 72 h, BXPC3 (pancreas)): 520 nM
IC50 (Homo sapiens, C-33-A, C33A (endometrial)): 60 nM
IC50 (Homo sapiens, CAKI-1, 72 h, CAKI1 (kidney)): 10 nM
IC50 (Homo sapiens, COLO 205, 72 h, COLO205 (colon)): 170 nM
IC50 (Homo sapiens, COLO-678, 72 h, COLO678 (colon)): 650 nM
IC50 (Homo sapiens, Ca-Ski, CASKI (endometrial)): 40 nM
IC50 (Homo sapiens, Caco-2, 72 h, CACO2 (colon)): 160 nM
IC50 (Homo sapiens, Calu-6, 72 h, CALU6 (lung)): 30 nM
IC50 (Homo sapiens, DLD-1, 72 h, DLD1 (colon)): 350 nM
IC50 (Homo sapiens, DU-145, 72 h, DU145 (prostate)): 20 nM
IC50 (Homo sapiens, EFO-21, 72 h, EFO21 (ovary)): 80 nM
IC50 (Homo sapiens, EJ-28, 72 h, EJ28 (bladder)): 60 nM
IC50 (Homo sapiens, Granta-519, 72 h, GRANTA-519 (hematological)): 2840 nM
IC50 (Homo sapiens, HCT-15, 72 h, HCT15 (colon)): 140 nM
IC50 (Homo sapiens, HCT-116, 72 h, HCT116 (colon)): 160 nM
IC50 (Homo sapiens, HEK293, 72 h, HEK293 (kidney)): 70 nM
IC50 (Homo sapiens, HL-60, 72 h, HL-60 (hematological)): 40 nM
IC50 (Homo sapiens, HT-29, 72 h, HT29 (colon)): 50 nM
IC50 (Homo sapiens, HT-1080, 72 h, HT1080 (connective tissue)): 2090 nM
IC50 (Homo sapiens, HeLa, HELA (endometrial)): 70 nM
IC50 (Homo sapiens, HepG2, 72 h, HEPG2 (liver)): 60 nM
IC50 (Homo sapiens, Hs-578T, HS578T (breast)): 70 nM
IC50 (Homo sapiens, IGROV-1, 72 h, IGROV1 (ovary)): 30 nM
IC50 (Homo sapiens, IMR-90, 72 h, IMR90 (lung)): 50 nM
IC50 (Homo sapiens, JEG-3, 72 h, JEG3 (placenta)): 40 nM
IC50 (Homo sapiens, JIMT-1, 72 h, JIMT1 (breast)): 20 nM
IC50 (Homo sapiens, K562, 72 h, K-562 (hematological)): 1170 nM
IC50 (Homo sapiens, Kasumi 1, 72 h, KASUMI-1 (hematological)): 20 nM
IC50 (Homo sapiens, L-363, 72 h, L-363 (hematological)): 20 nM
IC50 (Homo sapiens, LoVo, LOVO (colon)): 20 nM
IC50 (Homo sapiens, MCF7, 72 h, MCF7 (breast)): 2550 nM
IC50 (Homo sapiens, MDA-MB-231, 72 h, MDAMB231 (breast)): 1060 nM
IC50 (Homo sapiens, MDA-MB-435, 72 h, MDAMB435 (skin)): 190 nM
IC50 (Homo sapiens, MDA-MB-436, 72 h, MDAMB436 (breast)): 50 nM
IC50 (Homo sapiens, MDA-MB-468, 72 h, MDAMB468 (breast)): 90 nM
IC50 (Homo sapiens, MG-63, 72 h, MG63 (bone)): 3610 nM
IC50 (Homo sapiens, MHH-ES-1, 72 h, MHHES1 (bone)): 100 nM
IC50 (Homo sapiens, MIA PaCa-2, 72 h, MIAPACA2 (pancreas)): 7250 nM
IC50 (Homo sapiens, MINO, MINO (hematological)): 20 nM
IC50 (Homo sapiens, MV4-11, 72 h, MV4-11 (hematological)): 20 nM
IC50 (Homo sapiens, NCI-H23, 72 h, NCI-H23 (lung)): 60 nM
IC50 (Homo sapiens, NCI-H82, 72 h, NCIH82 (lung)): 70 nM
IC50 (Homo sapiens, NCI-H292, 72 h, NCIH292 (lung)): 830 nM
IC50 (Homo sapiens, NCI-H460, 72 h, NCIH460 (lung)): 40 nM
IC50 (Homo sapiens, OVCAR-3, 72 h, OVCAR3 (ovary)): 30 nM
IC50 (Homo sapiens, OVCAR-4, 72 h, OVCAR4 (ovary)): 80 nM
IC50 (Homo sapiens, PLC-PRF-5, 72 h, PLCPRF5 (liver)): 450 nM
IC50 (Homo sapiens, Panc1005, 72 h, PANC1005 (pancreas)): 60 nM
IC50 (Homo sapiens, Ramos, RAMOS (hematological)): 130 nM
IC50 (Homo sapiens, SAOS-2, 72 h, SAOS2 (bone)): 50 nM
IC50 (Homo sapiens, SF-268, 72 h, SF268 (brain)): 1880 nM
IC50 (Homo sapiens, SF-295, 72 h, SF295 (brain)): 230 nM
IC50 (Homo sapiens, SK-BR-3, 72 h, SKBR3 (breast)): 10 nM
IC50 (Homo sapiens, SK-HEP1, 72 h, SKHEP1 (liver)): 450 nM
IC50 (Homo sapiens, SK-LMS-1, 72 h, SKLMS1 (uterus)): 40 nM
IC50 (Homo sapiens, SK-MEL-5, 72 h, SKMEL5 (skin; SKMELS [sic] in Table 9E)): 580 nM
IC50 (Homo sapiens, SK-MEL-28, 72 h, SKMEL28 (skin)): 100 nM
IC50 (Homo sapiens, SK-N-AS, SKNAS (brain)): 70 nM
IC50 (Homo sapiens, SK-N-SH, SKNSH (brain)): 30 nM
IC50 (Homo sapiens, SK-OV-3, 72 h, SKOV3 (ovary)): 60 nM
IC50 (Homo sapiens, SNB-75, 72 h, SNB75 (brain)): 160 nM
IC50 (Homo sapiens, SU-DHL10, 72 h, SU-DHL-10 (hematological)): 440 nM
IC50 (Homo sapiens, SU-DHL-6, 72 h, SU-DHL-6 (hematological)): 30 nM
IC50 (Homo sapiens, SW-620, 72 h, SW620 (colon)): 50 nM
IC50 (Homo sapiens, TE-671, 72 h, TE671 (muscle)): 370 nM
IC50 (Homo sapiens, THP-1, 72 h, THP-1 (hematological)): 1770 nM
IC50 (Homo sapiens, U2OS, U20S (bone; U2OS in Table 9E)): 60 nM
IC50 (Homo sapiens, U-87 MG, U87MG (brain)): 2010 nM
IC50 (Homo sapiens, UMUC3, 72 h, UMUC3 (bladder)): 980 nM
IC50 (Homo sapiens, UO-31, 72 h, UO31 (kidney)): 40 nM
IC50 (Homo sapiens, WSU-NHL, WSU-NHL (hematological)): 30 nM
IC50 (NCI-H358M, NCIH358M (lung)): 70 nM
IC50 (PBMC, PBMC (hematological)): 320 nM
IC50 (RD-ES, RDES (bone)): 30 nM
SMILES: C[C@]1(CO)O[C@@H](n2cnc3c(N)nc(F)nc32)[C@H](O)[C@@H]1O [Cpd. No. 178, (2R,3S,4R,5R)-5-(6-amino-2-fluoro-9H-purin-9-yl)-2-(hydroxymethyl)-2-methyltetrahydrofuran-3,4-diol]
